Test [1] relates to T. congolense (Tc) IL3000. Kind of test: Anti-trypanosomal assay (CellTiter-Glo), TcIL3000. The class given is cell-based. To be noted: mean ± SD. As to the method:
Six trypanosome species namely T. b. brucei (Tbb) GuTat3.1, T. b. rhodesiense (Tbr) IL1501, T. b. gambiense (Tbg) IL1922, T. evansi (Tev) Tansui, T. equiperdum (Teq) IVM-t1 and T. congolense (Tc) IL3000, were cultivated using HMI-9 medium and used in the study. The trypanocidal activity of hesperidin and neohesperidin dihydrochalcone, shown below, was assessed at 25 μg/ml or […].
(§1) The IC50 of Neohesperidin dihydrochalcone against six trypanosome species was determined using serial dilution in a 96-well plate (Optical bottom plate, ThermoFisher SCIENTIFIC, MA, USA). After three days, […] of CellTiter-Glo Luminescent cell viability reagent (Promega Corporation, WI, USA) was aliquoted into each well and luminosity was measured with a GloMax plate reader (Promega Corporation, WI, USA).

Test [2] has as its system T. b. brucei (Tbb) GuTat3.1. The test can be described thus: Anti-trypanosomal assay (CellTiter-Glo), TbbGUTat3.1. The class given is cell-based. The settings on record: mean ± SD. The method, then: (§2) Six trypanosome species namely T. b. brucei (Tbb) GuTat3.1, T. b. rhodesiense (Tbr) IL1501, T. b. gambiense (Tbg) IL1922, T. evansi (Tev) Tansui, T. equiperdum (Teq) IVM-t1 and T. congolense (Tc) IL3000, were cultivated using HMI-9 medium and used in the study. […]
as §1

In test [3] the test system is T. b. rhodesiense (Tbr) IL1501. The test can be described thus: Anti-trypanosomal assay (CellTiter-Glo), TbrIL1501. The class given is cell-based. To be noted: mean ± SD. The method, then:
as §2, §1
In general terms: Cellular ATP, detected with luciferase, serves as a proxy for viable cell number.

In test [4] the test system is T. b. gambiense (Tbg) IL1922. Kind of test: Anti-trypanosomal assay (CellTiter-Glo), TbgIL1922. The class given is cell-based. To be noted: mean ± SD. The method, then: as §2, §1
Test [5] relates to T. evansi (Tev) Tansui. The test can be described thus: Anti-trypanosomal assay (CellTiter-Glo), Tev Tansui. To be noted: mean ± SD. The class given is cell-based. The method, then: as §2, §1
Test [6] relates to T. equiperdum (Teq) IVM-t1. Kind of test: Anti-trypanosomal assay (CellTiter-Glo), Teq IVM-t1. The class given is cell-based. As to the method: as §2, §1
Test [7] deals with six trypanosome species. Kind of test: Anti-trypanosomal assay, statements over all six species. The class given is cell-based, Trypanosoma. To be noted: for antitrypanosomal activity: assayed at 0.25 or 25 μg/ml; for trypanocidal activity (words): at about 25 μg/ml. The method, then:
as §2, §1

Test [8] relates to Trypanosoma. To be noted: previously tested; cited from earlier work.
The test system of test [9] is Toxoplasma gondii. To be noted: compared to other flavonoids and conventional medicines; cited from earlier work.
The mark [10] stands for this setting: Trypanosoma equiperdum, read-out: Inhibition rate.

The text below walks through data of patent US11806358B1, “Method of treating trypanosomiasis” (KING FAISAL UNIVERSITY, priority 2023, dated 2023).

Values after ≈ are worked out from the molar mass of the structure shown.

In general, inhibition refers to the change of the read-out against control, counted positive when it falls. For `COc1ccc([C@@H]2CC(=O)c3c(O)cc(O[C@@H]4O[C@H](CO[C@@H]5O[C@@H](C)[C@H](O)[C@@H](O)[C@H]5O)[C@@H](O)[C@H](O)[C@H]4O)cc3O2)cc1O` [Hesperidin, hesperidin, reference compound], the inhibition at 0.25 µg/mL in [1] (Trypanosoma congolense, TcIL3000, 0.25 μg/ml, read-out: Inhibition rate) came out at 0%; in test [2] (Trypanosoma brucei, TbbGUTat3.1, 0.25 μg/ml, read-out: Inhibition rate), 0%; in test [3] (Trypanosoma brucei, RHODESIENSE, TbrIL1501, 0.25 μg/ml, read-out: Inhibition rate), 7.17 ± 3.1%; in [4] (Trypanosoma brucei, GAMBIENSE, TbgIL1922, 0.25 μg/ml, read-out: Inhibition rate), 1.56 ± 2.2%; in [5] (0.25 μg/ml, read-out: Inhibition rate), 7.67 ± 5.9%; in test [6] (setting [10]), 0.015 ± 0.022%. Also, the inhibition at 25 µg/mL is 0% in [1] (Trypanosoma congolense, TcIL3000, 25 μg/ml, read-out: Inhibition rate); 1.05 ± 0.99% in test [2] (Trypanosoma brucei, TbbGUTat3.1, 25 μg/ml, read-out: Inhibition rate); 0% in test [3] (Trypanosoma brucei, RHODESIENSE, TbrIL1501, 25 μg/ml, read-out: Inhibition rate); 0% in test [4] (Trypanosoma brucei, GAMBIENSE, TbgIL1922, 25 μg/ml, read-out: Inhibition rate); 0% in test [5] (25 μg/ml, read-out: Inhibition rate); 0.97 ± 1.37% in test [6] (setting [10]). Further, in [7], the “antitrypanosomal activity” value is “inadequate antitrypanosomal activity”. Further, in [7], the “trypanocidal activity (words)” value was “no activity”. Further, the “trypanocidal action” value in test [8] is “did not previously show any trypanocidal action”.

As for `COc1ccc([C@@H]2CC(=O)c3c(O)cc(O[C@@H]4O[C@H](CO)[C@@H](O)[C@H](O)[C@H]4O[C@@H]4O[C@@H](C)[C@H](O)[C@@H](O)[C@H]4O)cc3O2)cc1O` [neohesperidin], the “antiprotozoal activity against Toxoplasmosis” value in test [9] is given as “not as effective as other standard drugs or flavonoids”.

In general, IC50 refers to the concentration that inhibits the measured activity by half. For `COc1ccc(CCC(=O)c2c(O)cc(O[C@@H]3O[C@H](CO)[C@@H](O)[C@H](O)[C@H]3O[C@@H]3O[C@@H](C)[C@H](O)[C@@H](O)[C@H]3O)cc2O)cc1O` [Neohesperidin dihydrochalcone, neohesperidin dihydrochalcone], the Inhibition rate was 0% in test [1] (TcIL3000, 0.25 μg/ml); 82.07 ± 6.4% in test [1] (TcIL3000, 25 μg/ml); 2.89 ± 1.69% in [2] (TbbGUTat3.1, 0.25 μg/ml); 99.65 ± 0.2% in [2] (TbbGUTat3.1, 25 μg/ml); “more than 99%” in [2] (TbbGUTat3.1, 25 μg/ml, listed as neohesperidin dihydrochalcone); 3.95 ± 5.59% in test [3] (TbrIL1501, 0.25 μg/ml). Moreover, the Inhibition rate in test [3] (TbrIL1501, 25 μg/ml) is 99.63 ± 0.25%; in [3] (TbrIL1501, 25 μg/ml, listed as neohesperidin dihydrochalcone), “more than 99%”; in test [4] (TbgIL1922, 0.25 μg/ml), 1.09 ± 0.64%; in test [4] (TbgIL1922, 25 μg/ml) it was 99.63 ± 0.28%; in test [4] (TbgIL1922, 25 μg/ml, listed as neohesperidin dihydrochalcone), “more than 99%”; in [5] (0.25 μg/ml) it was 3.59 ± 5.5%. The Inhibition rate in [5] (25 μg/ml) is 99.18 ± 0.22%; in test [5] (25 μg/ml, listed as neohesperidin dihydrochalcone) it was “more than 99%”; in [6] (Teq IVM-t1, 0.25 μg/ml, mean ± SD), 0.59 ± 0.84%; in test [6] (Teq IVM-t1, 25 μg/ml, mean ± SD) it was 98.8 ± 0.17%; in [6] (Teq IVM-t1, 25 μg/ml, mean ± SD, listed as neohesperidin dihydrochalcone), “more than 99%”. Besides, the IC50 in test [1] (TcIL3000, three days) stood at 22.53 ± 2.3 µg/mL (≈ 36.8 µM); in [2] (TbbGUTat3.1, three days), 11.97 ± 0.026 µg/mL (≈ 19.5 µM); in test [3] (TbrIL1501, three days), 9.47 ± 2.73 µg/mL (≈ 15.5 µM); in test [4] (TbgIL1922, three days) it was 8.88 ± 3.84 µg/mL (≈ 14.5 µM); in test [5] (three days), 12.69 ± 0.98 µg/mL (≈ 20.7 µM); in test [6] (Teq IVM-t1, three days, mean ± SD) it was 11.38 ± 3.93 µg/mL (≈ 18.6 µM). Also, in [7], the “antitrypanosomal activity” value was “broad-spectrum and strong inhibition of trypanosomal growth”. Moreover, the “trypanocidal activity (words)” value is “substantial trypanocidal activity” in test [7] and “suppressed all the test strains” in [7] (listed as neohesperidin dihydrochalcone). For the same compound, the “inhibition rate, range over the species” value in test [7] (low concentration of 0.25 μg/ml) is recorded as 1.09-3.95%. Further, the “IC50 range over the six species” value in [7] (six Trypanosoma species) lay within 8.88 to 22.53 µg/mL.
